Where two headings read alike, the source gives them in different places.

This series is described as follows: logP (neutral / acidic, pH 2.3).

One may read the logP as the decadic logarithm of the partition coefficient of the neutral form, usually between octanol and water. Read a high logP as a more lipophilic compound. Turning to `CCN(C)C=Nc1cc(C)c(/C(C)=N/OC(C)c2ccc(Cl)cc2)cc1C` (stereo not shown) [Compound 38, N′-(4-{(1E)-N-[1-(4-chlorophenyl)ethoxy]ethanimidoyl}-2,5-dimethylphenyl)-N-ethyl-N-methylimidoformamide], the logP worked out at 5.67. The same compound registered a logP (pH 2.3) of 2.46.

“N-(2,5-dimethyl-4-{(E)-[1-phenylethoxy]ethanimidoyl}phenyl)-N-ethyl-N-methylimidoformamide [Compound 27]” returned a logP acidic (acidic) of 2.39. For the setting “neutral”, this compound registered a logP neutral of 5.09.

For the compound `CCN(C)C=Nc1cc(C)c(/C=N/OCc2ccc3c(c2)OCOC3)cc1C` [Compound 4, N′-(4-{(E)-[(4H-1,3-benzodioxin-7-ylmethoxy)imino]methyl}-2,5-dimethylphenyl)-N-ethyl-N-methylimidoformamide], the logP is 4.71. The logP (pH 2.3) was 2.02.

`CCN(C)C=Nc1cc(C)c(/C=N/OCC2CC2)cc1C` [Compound 47, N′-(4-{(E)-[(cyclopropylmethoxy)imino]methyl}-2,5-dimethylphenyl)-N-ethyl-N-methylimidoformamide] registered a logP of 3.95. For the setting “pH 2.3”, the logP worked out at 1.67.

Compound `CCN(C)C=Nc1cc(C)c(/C(C)=N/OCC[Si](C)(C)C)cc1C` [Compound 44, N′-(2,5-dimethyl-4-{(1E)-N-[2-(trimethylsilyl)ethoxy]ethanimidoyl}phenyl)-N-ethyl-N-methylimidoformamide] showed a logP of 6.21. Besides, the logP (pH 2.3) worked out at 2.76.

In turn, `CCN(C)C=Nc1cc(C)c(/C(C)=N/OCC(C)C)cc1C` [Compound 13, N-ethyl-N′-{4-[(1E)-N-isobutoxyethanimidoyl]-2,5-dimethylphenyl}-N-methylimidoformamide] had a logP of 4.98. Under “pH 2.3”, this compound displayed a lipophilicity (logP) of 2.22.

`CCN(C)C=Nc1cc(C)c(/C(C)=N/OCOCCOC)cc1C` [Compound 18, N′-{2,5-dimethyl-4-[(1E)-1-methyl-3,5,8-trioxa-2-azanon-1-en-1-yl]phenyl}-N-ethyl-N-methylimidoformamide] registered a lipophilicity (logP) of 3.05. Moreover, under “pH 2.3”, the lipophilicity (logP) was determined as 1.43.

`CCN(C)C=Nc1cc(C)c(/C(C)=N/OC)cc1C` [Compound 24, N-ethyl-N′-{4-[(1E)-N-methoxyethanimidoyl]-2,5-dimethylphenyl}-N-methylimidoformamide] yielded a log partition coefficient (logP) of 3.33. The logP (pH 2.3) was determined as 1.38.

Regarding `Cc1cc(C=NOC(C)C)c(C)cc1N` [4-(Isopropoxyiminomethyl)-2,5-dimethylaniline], the logP (pH 2.3) was determined as 2.77.

Where the note is “pH 2.3”, `CCN(C)C=Nc1cc(C)c(/C(C)=N/Nc2ccccc2F)cc1C` [Compound 45, N-ethyl-N′-(4-{(1E)-1-[2-(2-fluorophenyl)hydrazinylidene]ethyl}-2,5-dimethylphenyl)-N-methylimidoformamide] showed a logP of 1.91.

`C=CCO/N=C(\C)c1cc(C)c(N=CN(C)CC)cc1C` [Compound 35, N′-{4-[(1E)-N-(allyloxy)ethanimidoyl]-2,5-dimethylphenyl}-N-ethyl-N-methylimidoformamide]: the lipophilicity (logP) worked out at 4.02. This compound also yielded a logP (pH 2.3) of 1.72.

Turning to `Cc1cc(C=NOCc2ccccc2)c(C)cc1N` [4-(Benzyloxyiminomethyl)-2,5-dimethylaniline], the logP (pH 2.3) worked out at 4.22.

`CCO/N=C(\C)c1cc(C)c(N=CN(C)CC)cc1C` [Compound 23, N-ethyl-N′-{4-[(1E)—N-ethoxyethanimidoyl]-2,5-dimethylphenyl}-N-methylimidoformamide]: the lipophilicity (logP) is 3.86. Further, under “pH 2.3”, the lipophilicity (logP) was 1.6.

In turn, `CCN(C)C=Nc1cc(C)c(/C(C)=N/OC(C)(C)C)cc1C` [Compound 9, N-ethyl-N′-{4-[(1E)-N-tert-butoxyethanimidoyl]-2,5-dimethylphenyl}-N-methylimidoformamide] returned a logP of 5.17. For the setting “pH 2.3”, this compound had a log partition coefficient (logP) of 2.19.
